We go through three substances from paper doi:10.1101/2025.08.17.668569v1 (bioRxiv, 2025).

Ends that are not written are not given here.

The nature of one series: Solubility in water. The format is physicochemical.
The test system of series [1] is 4T1 murine triple-negative breast cancer cells. The experiment in a line: LDH assay. Format: cell-based.
The subject of series [2] is CT26 murine colon carcinoma cells. The experiment in a line: LDH assay, CT26 cells. The format is cell-based. The settings on record: read-out: EC50 CT26, Fig. 2A, 2 h, representative of N = 3.
Series [3] deals with MCA205 murine fibrosarcoma cells. Briefly: LDH assay, MCA205 cells. As to conditions: read-out: EC50 MCA205, Fig. 2A, 2 h, representative of N = 3. The format is cell-based.
Series [4] concerns B16-F10 murine melanoma cells. The experiment in a line: LDH assay, B16-F10 cells. The format is cell-based. As to conditions: read-out: EC50 B16-F10, Fig. 2A, 2 h, representative of N = 3.
Series [5] concerns CT2A murine glioblastoma cells. Briefly: LDH assay, CT2A cells. The format is cell-based. The settings on record: read-out: EC50 CT2A, Fig. 2A, 2 h, representative of N = 3.
For the next series, the system named is SUM149 cells. The experiment in a line: LDH assay, SUM149 cells. As to conditions: read-out: EC50 SUM149, Fig. 2B, 2 h, representative of N = 3. The format is cell-based, human.
In series [6] the test system is U2OS human osteosarcoma cells. Briefly: LDH assay, U2OS cells. Format: cell-based. As to conditions: read-out: EC50 U2OS, Fig. 2B, 2 h, representative of N = 3.
Series [7] deals with Panc10.05 human pancreatic cancer cells. Briefly: LDH assay, Panc10.05 cells. As to conditions: read-out: EC50 Panc10.05, Fig. 2B, 2 h, representative of N = 3. The format is cell-based.
Series [8] relates to HT-29 human colorectal cancer cells. The experiment in a line: LDH assay, HT-29 cells. Format: cell-based. As to conditions: read-out: EC50 HT-29, Fig. 2B, 2 h, representative of N = 3.
Series [9] deals with HepG2 human liver cancer cells. The experiment in a line: LDH assay, HepG2 cells. The format is cell-based. As to conditions: read-out: EC50 HepG2, Fig. 2B, 2 h, representative of N = 3.
The subject of series [10] is human melanoma cell line LOX IMVI. The experiment in a line: NCI-60 screen, LOX IMVI. The settings on record: 48 h, SRB. The format is cell-based.
In the next series the test system is CT26 tumors. Briefly: Tumor growth, CT26 murine colorectal model. Format: in vivo, BALB/c mice. The settings on record: intratumoral NF27.
A short description of series [11]: Half-life in murine serum. Format: in vitro ADME. As to conditions: mouse.
Series [12] relates to NCI-60 human tumor cell lines (59 cancer cell lines). The settings on record: 48 h.

In the case of NGRKACLNPASIVKKIIKKILKI [NF11], the “solubility in water” value in “Solubility in water” (lyophilized powder in water) is “formed a hard gel in water”.
As for NGRKAKKNAKKVKKIIKKIKKI-NH2 [NF22], the “oncolytic activity (LDH release)” value in series [1] (initial screen, 4T1 cells) is “no detectable oncolytic activity”.
NGRKAKLNPASIVKKIIKKILKS-NH2 [NF27]: the EC50 (commonly the midpoint of the concentration-response curve) in series [1] (read-out: EC50 4T1, Fig. 2A, LDH assay, 2 h, representative of N = 3) was determined as 12 µM; in [2], 4.4 µM; in series [3] it was 10.5 µM; in series [4] it was 10.9 µM; in series [5], 14.7 µM; with SUM149 cells it was 6.6 µM. In addition, the EC50 was determined as 11.5 µM in series [6], 21.3 µM in series [7], 24 µM in series [8] and 27.7 µM in [9]. The GI50 (as a rule, the concentration at which growth is held to half of that of the control) in series [10] was 26.3 µM; in series [12], < 10 µM. In the series on CT26 tumors, the “side effects in murine tumor models” value is listed as “no observable side effects”. Besides, the half-life – broadly, how long it takes for the measured level to halve – in series [11] came to 29 min. For the same substance, the solubility (as a rule, the dissolved amount per volume that the medium holds) in the series “Solubility in water” (water) was ≥ 40 mM.
